We go through 15 molecules from patent US20240226107A1, “UBIQUITIN-SPECIFIC PROTEASE 1 (USP1) INHIBITOR” (SIMCERE ZAIMING PHARMACEUTICAL CO., LTD., priority 2021, published 2024).

In brackets after ≈: the same amount, converted by molar mass.

Data set [1] in a line: Solubility (PBS pH 7.4) of compounds from DMSO solution. The following applies: aqueous buffer, kinetic from dmso stock, 10 mM DMSO solution into PBS pH 7.4, 25° C., read-out: Calculated solubility. Type of data set: physicochemical. The protocol: The solubility (PBS pH 7.4) of a compound to be tested was determined by LC/MS/MS. 6 μL of 10 mM DMSO solution of the compound to be tested was mixed with 194 μL of DMSO to prepare 300 μM compound solution. In 490 μL of water and acetonitrile (1:1) containing an internal standard, 5 μL of the solution and 5 μL of PBS pH 7.4 solution were mixed to prepare 3 μM standard concentration solution of the sample to be tested. The dilution factor of the standard solution can be adjusted according to the strength of response signals in LC/MS.
To 485 μL of PBS pH 7.4 solution, 15 μL of 10 mM DMSO solution of the compound to be tested was added. […] After shaking, the stir bar was removed, and the sample was transferred to a filter plate and filtered using a vacuum manifold. In 490 μL of water and acetonitrile (1:1) containing an internal standard, 5 μL of filtrate and 5 μL of PBS pH 7.4 solution were mixed to prepare a solution to be tested. The dilution factor can be adjusted according to the solubility value and the strength of response signals in LC/MS.
The resulting samples were determined by LC/MS/MS. The sample solubility was calculated from peak areas of the solution of the compound to be tested and the standard concentration solution, according to the following equation:
[formula] • [Sample] is the solubility of the sample to be tested; • Area ratiosample is the ratio of the peak area of sample in the sample to be tested to the peak area of the internal standard; • INJ VOL STD is the injection volume of the standard concentration solution; • DFsample is the dilution factor of the solution of the sample to be tested; • [STD] is the concentration of the standard concentration solution; • INJ VOLsample is the injection volume of the solution of the sample to be tested; and • Area ratio STD is the ratio of the peak area of sample in the standard concentration solution to the peak area of the internal standard.

Data set [2] concerns MDA-MB-436 cells.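 Further: MDA-MB-436 proliferation over 7 days with compound, viability read as ATP luminescence (CellTiter-Glo), inhibition relative to DMSO-only wells, day 0 signal as background, GI50 from four-parameter fit.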
Data set [3] concerns the target USP1 (Recombinant Human His6-USP1/His6-UAF1 Complex Protein) (Homo sapiens (Human), UniProt O94782). In words: In vitro activity assay for USP1 (Ub-CHOP2-Reporter deubiquitination assay). The class given is biochemical. The following applies: 0.5 h incubation at room temperature, read-out: In vitro inhibitory activity of USP1 IC50. The essentials: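 His6-USP1/His6-UAF1 complex was mixed with compound in 20 mM Tris-HCl pH 8.0, 2 mM CaCl2, 2 mM β-mercaptoethanol and 0.05% CHAPS. Ub-CHOP2 reporter system plus substrate was added, then incubated 0.5 h at room temperature. IC50 came from a four-parameter logistic fit.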

Data set [4] is described as follows: Metabolic stability in vitro in rat hepatocytes. The class given is in vitro ADME. The following applies: read-out: Intrinsic clearance. The method, then:
The concentration of each compound in the reaction system was measured by LC/MS/MS to calculate the intrinsic clearance of the compounds to be tested, and evaluate the metabolic stability in vitro in rat hepatocytes.
To the incubation plate, 198 μL of 0.5×10^6 cells/mL rat hepatocyte mixture and 2.0 μL of 100 μM compound to be tested or positive control were added to initiate reaction. Incubation was performed at 900 rpm at 37° C. […] Then the mixture was vortex-mixed for 5 min. […] Then 100 μL of supernatant of each compound was transferred to a 96-well sample plate, and 100 μL of purified water was added to dilute the sample. The resulting samples were quantified by ion chromatograms. The residual rate was calculated from peak areas of the compounds to be tested or the positive control. The slope k was determined using Microsoft Excel by linear regression of natural logarithm of the residual rate to the incubation time. The intrinsic clearance (in vitro CLint, μL/min/10^6 cells) was calculated from the slope value according to the following equation: […]

Chain of USP1 (Recombinant Human His6-USP1/His6-UAF1 Complex Protein) (O94782 whole entry): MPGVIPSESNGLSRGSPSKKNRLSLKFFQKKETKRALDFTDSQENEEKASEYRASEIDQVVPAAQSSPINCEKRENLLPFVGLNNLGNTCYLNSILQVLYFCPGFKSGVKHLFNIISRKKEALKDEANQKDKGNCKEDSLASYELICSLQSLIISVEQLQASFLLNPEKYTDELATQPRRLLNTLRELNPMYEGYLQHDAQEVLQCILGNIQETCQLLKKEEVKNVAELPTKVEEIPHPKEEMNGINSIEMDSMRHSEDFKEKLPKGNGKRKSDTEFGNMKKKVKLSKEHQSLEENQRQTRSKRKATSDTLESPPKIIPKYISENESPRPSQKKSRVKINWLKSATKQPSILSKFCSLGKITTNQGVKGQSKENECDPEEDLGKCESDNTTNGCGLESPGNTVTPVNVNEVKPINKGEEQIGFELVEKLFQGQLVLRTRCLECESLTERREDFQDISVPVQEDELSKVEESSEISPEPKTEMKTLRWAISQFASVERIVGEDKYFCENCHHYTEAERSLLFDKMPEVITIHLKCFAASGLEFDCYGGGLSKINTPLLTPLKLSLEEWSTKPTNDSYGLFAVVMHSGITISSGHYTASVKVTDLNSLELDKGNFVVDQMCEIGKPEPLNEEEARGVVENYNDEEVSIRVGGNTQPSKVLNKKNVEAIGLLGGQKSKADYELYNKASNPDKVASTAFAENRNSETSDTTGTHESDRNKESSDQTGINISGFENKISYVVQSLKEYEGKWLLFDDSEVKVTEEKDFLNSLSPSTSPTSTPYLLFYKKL
Chain of USP1 (Recombinant Human His6-USP1/His6-UAF1 Complex Protein) (Q8TAF3 whole entry partner): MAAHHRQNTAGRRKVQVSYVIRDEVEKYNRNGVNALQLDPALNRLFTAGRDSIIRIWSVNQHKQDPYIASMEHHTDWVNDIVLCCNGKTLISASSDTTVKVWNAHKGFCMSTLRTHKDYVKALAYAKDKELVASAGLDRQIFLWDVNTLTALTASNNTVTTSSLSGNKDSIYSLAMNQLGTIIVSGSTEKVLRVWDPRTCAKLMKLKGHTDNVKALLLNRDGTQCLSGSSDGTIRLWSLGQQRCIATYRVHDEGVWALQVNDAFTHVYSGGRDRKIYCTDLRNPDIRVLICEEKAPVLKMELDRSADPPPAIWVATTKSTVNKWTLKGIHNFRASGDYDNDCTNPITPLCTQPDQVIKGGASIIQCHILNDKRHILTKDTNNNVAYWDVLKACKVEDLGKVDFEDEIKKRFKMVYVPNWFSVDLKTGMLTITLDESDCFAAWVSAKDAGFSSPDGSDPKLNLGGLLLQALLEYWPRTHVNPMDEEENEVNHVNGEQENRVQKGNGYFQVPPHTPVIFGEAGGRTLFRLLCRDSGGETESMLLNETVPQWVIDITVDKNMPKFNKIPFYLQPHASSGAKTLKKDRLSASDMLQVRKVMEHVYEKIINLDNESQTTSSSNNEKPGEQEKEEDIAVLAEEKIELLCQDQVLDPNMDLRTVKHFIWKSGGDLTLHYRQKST

Regarding `COc1ncnc(C2CC2)c1-c1ncc2c(n1)N(Cc1ccc(-c3nc(C(F)(F)F)cn3C(C)C)cc1)CC(=O)N2C` [Compound 41, 2-(4-cyclopropyl-6-methoxypyrimidin-5-yl)-5-methyl-8-(4-(1-isopropyl-4-(trifluoromethyl)-1H-imidazol-2-yl)benzyl)-7,8-dihydropteridin-6(5H)-one], in data set [1], the solubility (as a rule, how much of the substance goes into solution per volume) at 2 h was 88 µM (≈ 50.9 µg/mL). The GI50 (usually the concentration at which growth is held to half of that of the control) in data set [2] came to 0.0284 µM. Moreover, the IC50 (usually the concentration that gives 50% inhibition) in data set [3] is 0.019 µM.

On to `CCn1cc(C(F)(F)F)nc1-c1ccc(CN2CC(=O)N(C)c3cnc(-c4c(OC)ncnc4C4CC4)nc32)cc1` [Compound 40, 2-(4-cyclopropyl-6-methoxypyrimidin-5-yl)-5-methyl-8-(4-(1-ethyl-4-(trifluoromethyl)-1H-imidazol-2-yl)benzyl)-7,8-dihydropteridin-6(5H)-one], for which, in data set [1], the solubility at 2 h was 122 µM (≈ 68.9 µg/mL). Also, in data set [2], the GI50 was determined as 0.0226 µM. Further, the IC50 in data set [3] turned out to be 0.0269 µM.

On to `COc1ncnc(C2CC2)c1-c1ncc2c(n1)N(CC1CCN(c3nc(C(F)(F)F)cn3C)CC1)CCO2` [Compound 30, 2-(4-cyclopropyl-6-methoxypyrimidin-5-yl)-8-((1-(1-methyl-4-(trifluoromethyl)-1H-imidazol-2-yl)piperidin-4-yl)methyl)-7,8-dihydro-6H-pyrimido[5,4-b][1,4]oxazine], for which, in data set [1], the solubility at 2 h is 225 µM (≈ 119 µg/mL). Further, the GI50 in data set [2] was 0.161 µM. Besides, the IC50 in data set [3] stood at 0.0447 µM.

As for `COc1ncnc(C2CC2)c1-c1ncc2c(n1)N(Cc1cc(F)c(-c3nc(C(F)(F)F)cn3C)c(F)c1)CC(=O)N2C` [Compound 66, 2-(4-cyclopropyl-6-methoxypyrimidin-5-yl)-5-methyl-8-(3,5-difluoro-4-(1-methyl-4-(trifluoromethyl)-1H-imidazol-2-yl)benzyl)-7,8-dihydropteridin-6(5H)-one], the solubility at 2 h in data set [1] was 115 µM (≈ 67.5 µg/mL). The molecule also registered a 50% growth inhibitory concentration (GI50) in data set [2] of 0.0296 µM. In addition, in data set [3], the 50% inhibitory concentration (IC50) came out at 0.0272 µM.

For the molecule `CCN1C(=O)CN(Cc2ccc3c(c2)CCCn2cc(C(F)(F)F)nc2-3)c2nc(-c3c(OC)ncnc3C3CC3)ncc21` [Compound 46, 2-(4-cyclopropyl-6-methoxypyrimidin-5-yl)-5-ethyl-8-((2-(trifluoromethyl)-6,7-dihydro-5H-benzo[c]imidazo[1,2-a]azepin-9-yl)methyl)-7,8-dihydropteridin-6(5H)-one], the solubility at 2 h in data set [1] was 50 µM (≈ 29.5 µg/mL).

As to `CCN1C(=O)CN(Cc2ccc(-c3nc(C(F)(F)F)cn3C)cc2)c2nc(-c3c(OC)ncnc3C3CC3)ncc21` [Compound 33, 2-(4-cyclopropyl-6-methoxypyrimidin-5-yl)-5-ethyl-8-(4-(1-methyl-4-(trifluoromethyl)-1H-imidazol-2-yl)benzyl)-7,8-dihydropteridin-6(5H)-one], the hepatocyte CLint at 1 μM in data set [4] was 4.3 µL/min/1e6 cells. Moreover, the GI50 in data set [2] was found to be 0.0538 µM. Further, the IC50 in data set [3] amounted to 0.0313 µM.

Turning to `COc1ncnc(C2CC2)c1-c1ncc2c(n1)N(Cc1ccc(-c3nc(C(F)(F)F)cn3C)c(F)c1)C(C)C(=O)N2C` (stereo not shown) [Compound 70, 2-(4-cyclopropyl-6-methoxypyrimidin-5-yl)-8-(3-fluoro-4-(1-methyl-4-(trifluoromethyl)-1H-imidazol-2-yl)benzyl)-5,7-dimethyl-7,8-dihydropteridin-6(5H)-one], the solubility at 2 h in data set [1] is 98 µM (≈ 57.1 µg/mL). In data set [2], this molecule yielded a 50% growth inhibitory concentration (GI50) of 0.0931 µM. In data set [3], the IC50 turned out to be 0.0379 µM.

For the molecule `COc1ncnc(C2CC2)c1-c1ncc2c(n1)N(Cc1ccc(-c3nc(C(F)(F)F)cn3C(F)F)cc1)CC(=O)N2C` [Compound 28, 2(4-cyclopropyl-6-methoxypyrimidin-5-yl)-8-((4-(1-(difluoromethyl)-4-(trifluoromethyl)-1H-imidazol-2-yl)phenyl)methyl)-5-methyl-7,8-dihydropteridin-6(5H)-one], the hepatocyte CLint at 1 μM in data set [4] is 6.3 µL/min/1e6 cells. Also, the solubility at 2 h in data set [1] was 73 µM (≈ 42.8 µg/mL). The GI50 in data set [2] is 0.0511 µM. Further, the IC50 in data set [3] came to 0.0337 µM.

As for `COc1ncnc(C2CC2)c1-c1ncc2c(n1)N(Cc1ccc(-c3nc(C(F)(F)F)cn3C)cc1)CC(=O)N2C1CC1` [Compound 24, 2-(4-cyclopropyl-6-methoxypyrimidin-5-yl)-5-cyclopropyl-8-(4-(1-methyl-4-(trifluoromethyl)-1H-imidazol-2-yl)benzyl)-7,8-dihydropteridin-6(5H)-one], the solubility at 2 h in data set [1] was 228 µM (≈ 131 µg/mL). Besides, growth in data set [2] was halved (GI50) at 0.0862 µM. Besides, the IC50 in data set [3] turned out to be 0.0236 µM.

As to `COc1ncnc(C2CC2)c1-c1ncc2c(n1)N(Cc1ccc(-c3nc(C(F)(F)F)cn3C)cn1)CCO2` [Compound 16], the solubility at 2 h in data set [1] is 284 µM (≈ 149 µg/mL). For the same molecule, the 50% growth inhibitory concentration (GI50) in data set [2] was determined as 1.08 µM.

Take `COc1ncnc(C2CC2)c1-c1ncc2c(n1)N(Cc1ccc(-c3nc(C(F)(F)F)cn3C)cc1)C(=O)OC2` [Compound 80, 7-(4-cyclopropyl-6-methoxypyrimidin-5-yl)-1-(4-(1-methyl-4-(trifluoromethyl)-1H-imidazol-2-yl)benzyl)-1,4-dihydro-2H-pyrimido[4,5-d][1,3]oxazin-2-one]: the solubility at 2 h in data set [1] was 72 µM (≈ 38.7 µg/mL). The IC50 in data set [3] stood at 0.0117 µM.

In data set [2], `COc1ncnc(C2CC2)c1-c1ncc2c(n1)N(Cc1ccc(-c3nc(C(F)(F)F)cn3C3CC3)c(F)c1)CC(=O)N2C1CC1` [Compound 77, 2-(4-cyclopropyl-6-methoxypyrimidin-5-yl)-8-(3-fluoro-4-(1-cyclopropyl-4-(trifluoromethyl)-1H-imidazol-2-yl)benzyl)-5-cyclopropyl-7,8-dihydropteridin-6(5H)-one] registered a GI50 of 0.0487 µM. Further, the IC50 in data set [3] amounted to 0.0184 µM.

On to `COc1ncnc(C2CC2)c1-c1ncc2c(n1)N(Cc1ccc3c(c1)C(C)CCn1cc(C(F)(F)F)nc1-3)CC(=O)N2C` (stereo not shown) [Compound 79, 2-(4-cyclopropyl-6-methoxypyrimidin-5-yl)-5-methyl-8-((7-methyl-2-(trifluoromethyl)-6,7-dihydro-5H-benzo[c]imidazo[1,2-a]azepin-9-yl)methyl)-7,8-dihydropteridin-6(5H)-one], for which the GI50 in data set [2] turned out to be 0.0802 µM. The IC50 in data set [3] is 0.0952 µM.

As to `COc1ncnc(C2CC2)c1-c1ncc2c(n1)N(Cc1c(F)cc(-c3nc(C(F)(F)F)cn3C)cc1F)CCO2` [Compound 10, 2-(4-cyclopropyl-6-methoxypyrimidin-5-yl)-8-(2,6-difluoro-4-(1-methyl-4-(trifluoromethyl)-1H-imidazol-2-yl)benzyl)-7,8-dihydro-6H-pyrimido[5,4-b][1,4]oxazine], the concentration for 50% growth inhibition (GI50) in data set [2] was found to be 0.507 µM. In addition, in data set [3], the half-inhibitory concentration (IC50) turned out to be 0.106 µM.

Take `COc1ncnc(C2CC2)c1-c1ncc2c(n1)N(Cc1ccc(-c3nc(C(F)(F)F)cn3C)cc1)C(C)C(=O)N2C` (stereo not shown) [Compound 26, 2-(4-cyclopropyl-6-methoxypyrimidin-5-yl)-5,7-dimethyl-8-(4-(1-methyl-4-(trifluoromethyl)-1H-imidazol-2-yl)benzyl)-7,8-dihydropteridin-6(5H)-one]: in data set [4], the hepatocyte CLint at 1 μM worked out at 4.2 µL/min/1e6 cells. Also, the solubility at 2 h in data set [1] was 115 µM (≈ 64.9 µg/mL). The same molecule returned a GI50 in data set [2] of 0.0411 µM. Moreover, the 50% inhibitory concentration (IC50) in data set [3] came out at 0.0414 µM.
